The term ED50 denotes the midpoint of the dose-response relation. The term TD50 denotes the 50% point of the dose-response relation for the toxic effect studied.

The subject of data set [1] is Mus musculus. Briefly: Anticonvulsant activity in ip dosed mouse assessed as inhibition of maximal electroshock-induced seizures. Type of data set: functional. In general terms: In the maximal electroshock model the usual endpoint is tonic extension of the hind limbs.
The test system of data set [2] is Mus musculus. Briefly: Anticonvulsant activity in ip dosed CF1 albino mouse assessed as inhibition of maximal electroshock-induced seizures after 0.5 hrs. Type of data set: functional.
The test system of data set [3] is Mus musculus. Briefly: Anticonvulsant activity in CF1 albino mouse assessed as inhibition of maximal electroshock-induced seizures at 300 mg/kg, ip after 4 hrs. The data set is classed as functional, organism-based. Also on record: dose 300 mg/kg.
Data set [4] relates to Mus musculus. The experiment in a line: Neurotoxicity in ip dosed CF1 albino mouse assessed as ability to maintain equilibrium for 1 min on […] after 4 hrs by rotarod test. The data set is classed as toxicity, organism-based. Conditions: in vivo. (In general: In the rotarod test animals must keep their balance on a rotating rod.)
The test system of data set [5] is Mus musculus. The experiment in a line: Neurotoxicity in ip dosed CF1 albino mouse assessed as ability to maintain equilibrium for 1 min on […] after 0.5 hrs by rotarod test. The data set is classed as toxicity, organism-based. To be noted: in vivo.
Data set [6] concerns Mus musculus. Briefly: Toxicity in CF1 albino mouse assessed as myoclonic jerks at 100 mg/kg, ip after 4 hrs. Type of data set: organism-based. Also on record: dose 100 mg/kg, route intraperitoneal. To be noted: in vivo.
In data set [7] the test system is Mus musculus. The experiment in a line: Anticonvulsant activity against maximal electroshock-induced seizures in ip dosed CF1 albino mouse assessed as time to peak effect. The data set is classed as functional.
For data set [8], the system named is Mus musculus. Briefly: Anticonvulsant activity in ip dosed CF1 albino mouse assessed as inhibition of maximal electroshock-induced seizures. Type of data set: functional.
Data set [9] concerns Mus musculus. The experiment in a line: Anticonvulsant activity in ip dosed CF1 albino mouse assessed as inhibition of subcutaneous pentylenetetrazole-induced seizures. Type of data set: functional.
Data set [10] can be described thus: Neurotoxicity in ip dosed CF1 albino mouse assessed as ability to maintain equilibrium for 1 min on […] by rotarod test. The data set is classed as toxicity, organism-based. Conditions: in vivo.
The species entered for data set [11] is Mus musculus. The experiment in a line: Protective index, ratio of TD50 for neurotoxicity in CF1 albino mouse to ED50 for inhibition of maximal electroshock-induced seizures in CF1 albino mouse. The data set is classed as functional.
Data set [12] relates to Rattus norvegicus. Briefly: Anticonvulsant activity against maximal electroshock-induced seizures in po dosed rat assessed as time to peak effect. Type of data set: functional.
Data set [13] deals with Rattus norvegicus. Briefly: Anticonvulsant activity in po dosed rat assessed as inhibition of subcutaneous pentylenetetrazole-induced seizures. The data set is classed as functional.
Data set [14] is described as follows: Neurotoxicity in po dosed rat assessed as ability to maintain equilibrium for 1 min on […] by rotarod test. The data set is classed as toxicity, organism-based. To be noted: in vivo.
The species entered for data set [15] is Rattus norvegicus. Briefly: Protective index, ratio of TD50 for neurotoxicity in rat to ED50 for inhibition of maximal electroshock-induced seizures in rat. Type of data set: functional.
In data set [16] the test system is Mus musculus. Briefly: Anticonvulsant activity in ip dosed CF1 albino mouse assessed as inhibition of maximal electroshock-induced seizures after 4 hrs. Type of data set: functional.
For data set [17], the system named is Mus musculus. Briefly: Anticonvulsant activity in CF1 albino mouse assessed as protection against maximal electroshock-induced seizures at 30 mg/kg, po after 0.5 hrs. Type of data set: functional.
Data set [18] relates to Mus musculus. The experiment in a line: Anticonvulsant activity in CF1 albino mouse assessed as protection against maximal electroshock-induced seizures at 30 mg/kg, po after 1 hr. The data set is classed as functional.
Data set [19] has as its system Mus musculus. Briefly: Anticonvulsant activity in CF1 albino mouse assessed as protection against maximal electroshock-induced seizures at 30 mg/kg, po after 2 hrs. The data set is classed as functional.
Data set [20] deals with Mus musculus. The experiment in a line: Anticonvulsant activity in CF1 albino mouse assessed as protection against maximal electroshock-induced seizures at 30 mg/kg, po after 4 hrs. Type of data set: functional.
Data set [21] concerns Mus musculus. The experiment in a line: Neurotoxicity in CF1 albino mouse assessed as motor impairment at 30 mg/kg, po after 0.25 hrs by rotarod test. Type of data set: toxicity, organism-based. Also on record: dose 30 mg/kg, route oral. Conditions: in vivo.
Data set [22] has as its system Mus musculus. Briefly: Neurotoxicity in CF1 albino mouse assessed as motor impairment at 30 mg/kg, po after 0.5 hrs by rotarod test. Type of data set: toxicity, organism-based. On the set-up: dose 30 mg/kg, route oral. To be noted: in vivo.
Data set [23] deals with Mus musculus. Briefly: Neurotoxicity in CF1 albino mouse assessed as motor impairment at 30 mg/kg, po after 1 hr by rotarod test. Type of data set: toxicity, organism-based. Also on record: dose 30 mg/kg, route oral. Conditions: in vivo.
The subject of data set [24] is Mus musculus. The experiment in a line: Neurotoxicity in CF1 albino mouse assessed as motor impairment at 30 mg/kg, po after 2 hrs by rotarod test. On the set-up: dose 30 mg/kg, route oral. The data set is classed as toxicity, organism-based. Conditions: in vivo.
Data set [25] has as its system Mus musculus. The experiment in a line: Neurotoxicity in CF1 albino mouse assessed as motor impairment at 30 mg/kg, po after 4 hrs by rotarod test. The data set is classed as toxicity, organism-based. Also on record: dose 30 mg/kg, route oral. Conditions: in vivo.
For data set [26], the system named is Mus musculus. The experiment in a line: Anticonvulsant activity in CF1 albino mouse assessed as protection against maximal electroshock-induced seizures at 30 mg/kg, po after 0.25 hrs. The data set is classed as functional.
Data set [27] has as its system Mus musculus. The experiment in a line: Anticonvulsant activity in CF1 albino mouse assessed as inhibition of maximal electroshock-induced seizures at 300 mg/kg, ip after 0.5 hrs. The data set is classed as functional, organism-based. Also on record: dose 300 mg/kg.
The subject of data set [28] is Mus musculus. Briefly: Neurotoxicity in CF1 albino mouse assessed as ability to maintain equilibrium for 1 min on […] at 300 mg/kg, ip after 4 hrs by rotarod test. The data set is classed as toxicity, organism-based. On the set-up: dose 300 mg/kg, route intraperitoneal. To be noted: in vivo.
Data set [29] concerns Mus musculus. The experiment in a line: Neurotoxicity in CF1 albino mouse assessed as death at 300 mg/kg, ip after 0.5 hrs by rotarod test. The data set is classed as toxicity, organism-based. On the set-up: dose 300 mg/kg, route intraperitoneal. Conditions: in vivo.
In data set [30] the test system is Mus musculus. Briefly: Neurotoxicity in CF1 albino mouse assessed as occurance of tremors at 300 mg/kg, ip after 4 hrs by rotarod test. The data set is classed as toxicity, organism-based. On the set-up: dose 300 mg/kg, route intraperitoneal. Conditions: in vivo.
The subject of data set [31] is Mus musculus. Briefly: Anticonvulsant activity in CF1 albino mouse assessed as inhibition of subcutaneous pentylenetetrazole-induced seizures at 100 mg/kg, ip after 4 hrs. On the set-up: dose 100 mg/kg. The data set is classed as functional, organism-based.
Data set [32] deals with Mus musculus. The experiment in a line: Anticonvulsant activity in CF1 albino mouse assessed as inhibition of subcutaneous pentylenetetrazole-induced seizures at 300 mg/kg, ip after 4 hrs. Type of data set: functional, organism-based. On the set-up: dose 300 mg/kg.
Data set [33] concerns Mus musculus. The experiment in a line: Toxicity in CF1 albino mouse assessed as myoclonic jerks at 300 mg/kg, ip after 4 hrs. Type of data set: organism-based. On the set-up: dose 300 mg/kg, route intraperitoneal. Conditions: in vivo.

The structures appear in SMILES notation. Activity calls are given as the source filed them. The rule behind the calls is not given here.

`Cc1cccc(N2CCN(CCCN3C(=O)CC(c4ccccc4Cl)C3=O)CC2)c1` (stereo not drawn): the Activity in data set [1] came to 120 mg/kg.
`COc1ccccc1N1CCN(CN2C(=O)CC(c3ccccc3C)C2=O)CC1.Cl` (stereo not drawn): the Activity in data set [2] is 300 mg/kg; in data set [4], 300 mg/kg; in [5] it was 100 mg/kg; in data set [6] it was “Toxic”. Moreover, the result in [3] was inactive.
On to `O=C1NC(=O)C(c2ccccc2)(c2ccccc2)N1` [PHENYTOIN], for which the Time in data set [7] amounted to 1 h; in data set [12], 2 h. Also, the ED50 in [8] is 5.32 mg/kg; in data set [9] it was more than 500 mg/kg; in [13], more than 500 mg/kg. The TD50 at 1 min in [10] was 41.2 mg/kg; in [14], more than 500 mg/kg. The “Ratio TD50/ED50” value in data set [11] is 6.52; in [15], more than 21.6. The Activity in data set [2] came to 30 mg/kg; in data set [16], 30 mg/kg; in data set [4], 100 mg/kg; in data set [5], 100 mg/kg. Moreover, in data set [17], the outcome was Active.
As to `O=C1CC(c2ccccc2C(F)(F)F)C(=O)N1CCCN1CCN(c2cccc(C(F)(F)F)c2)CC1` (stereo not drawn), the Activity is reported as 25% in data set [18]; “Non-toxic” in [21]; “Non-toxic” in data set [22]; “Non-toxic” in data set [23]; “Non-toxic” in data set [24]; “Non-toxic” in data set [25]. For the same molecule, the Activity in data set [2] turned out to be 30 mg/kg; in data set [16], 100 mg/kg; in data set [4], 300 mg/kg; in data set [5], 300 mg/kg; in [17], 25%. The result in [19], in [20] and in data set [26] was inactive. Moreover, the Time in [7] was 2 h. Also, the ED50 in data set [8] is 132 mg/kg; in data set [9], more than 350 mg/kg. The TD50 at 1 min in [10] came to 360 mg/kg. Moreover, in data set [11], the “Ratio TD50/ED50” value stood at 2.72.
For the molecule `COc1ccccc1N1CCN(CCN2C(=O)CC(c3ccccc3C)C2=O)CC1` (stereo not drawn), the result in data set [27] and in data set [3] was inactive. The Activity in data set [5] is 300 mg/kg; in [28], “Non-toxic”; in [29], “Toxic”.
Take `COc1ccccc1N1CCN(CN2C(=O)CC(c3ccccc3C(F)(F)F)C2=O)CC1` (stereo not drawn): the Activity result in data set [30] is “Toxic”; in [2] it was 300 mg/kg; in [16], 300 mg/kg; in [4], 100 mg/kg; in [5], 100 mg/kg; in data set [6], “Toxic”. In addition, the Activity entry in data set [33] is “Toxic”. The result in data set [31] and in [32] was Active.

These data come from ChEMBL document CHEMBL1137686, “Synthesis and anticonvulsant activity of new N-[(4-arylpiperazin-1-yl)-alkyl] derivatives of 3-phenyl-pyrrolidine-2,5-dione” (Eur J Med Chem, 2009).
